Assay results as given in ChEMBL document CHEMBL5505975, “Design, synthesis and biological evaluation of CDC20 inhibitors for treatment of triple-negative breast cancer” (Eur J Med Chem, 2024).
Active and inactive are the calls of the source. The calls are words filed in the database; no cut-off is given here.

Assays:
[1] = Toxicity in female BALB/C mouse implanted with mouse 4T1 cells assessed as change in serum BUN level at 20 to 50 mg/kg, po administered every two days for 21 days; format: organism-based; settings: in vivo, 504 h, dose 20-50 mg/kg, time 21 day
MDA-MB-231 [2] = assay: Cell cycle arrest in human MDA-MB-231 cells assessed as G2 phase cells at 20 uM incubated for 48 hrs by PI staining based flow cytometric analysis (reference value: 7.3%); format: functional
MDA-MB-231 [3] = assay: Cell cycle arrest in human MDA-MB-231 cells assessed as G1 phase cells at 20 uM incubated for 24 hrs by PI staining based flow cytometric analysis (reference value: 56.7%); format: functional
[4] = Toxicity in female BALB/C mouse implanted with mouse 4T1 cells assessed as effect on lymphocytes at 20 to 50 mg/kg, po administered every two days for 21 days by routine blood analysis; format: organism-based; settings: in vivo, 504 h, dose 20-50 mg/kg, time 21 day
MDA-MB-231 [5] = assay: Cell cycle arrest in human MDA-MB-231 cells assessed as S phase cells at 20 uM incubated for 48 hrs by PI staining based flow cytometric analysis (reference value: 16.0%); format: functional
MDA-MB-231 [6] = assay: Induction of apoptosis in human MDA-MB-231 cells assessed as necrotic cells at 5 uM incubated for 48 hrs by Annexin V-FITC/PI staining based flow cytometric analysis (reference value: 1.63%); format: functional
[7] = Toxicity in female BALB/C mouse implanted with mouse 4T1 cells assessed as heart damage at 20 to 50 mg/kg, po administered every two days for 21 days by H and E staining based analysis; format: organism-based; settings: in vivo, 504 h, dose 20-50 mg/kg, time 21 day
[8] = Toxicity in female BALB/C mouse implanted with mouse 4T1 cells assessed as liver damage at 20 to 50 mg/kg, iv administered every two days for 21 days by H and E staining based analysis; format: organism-based; settings: in vivo, 504 h, dose 20-50 mg/kg, time 21 day
MDA-MB-231 [9] = assay: Induction of apoptosis in human MDA-MB-231 cells assessed as viable cells at 20 uM incubated for 48 hrs by Annexin V-FITC/PI staining based flow cytometric analysis (reference value: 95.10%); format: functional; settings: read-out: Activity
[10] = Toxicity in female BALB/C mouse implanted with mouse 4T1 cells assessed as liver damage at 20 to 50 mg/kg, po administered every two days for 21 days by H and E staining based analysis; format: organism-based; settings: in vivo, 504 h, dose 20-50 mg/kg, time 21 day
MDA-MB-231 [11] = assay: Antiproliferative activity against human MDA-MB-231 cells assessed as reduction in cell viability incubated for 96 hrs by MTT assay; settings: MDA-MB-231, 96 h
MDA-MB-231 [12] = assay: Cell cycle arrest in human MDA-MB-231 cells assessed as G1 phase cells at 20 uM incubated for 48 hrs by PI staining based flow cytometric analysis (reference value: 76.7%); format: functional
MDA-MB-231 [13] = assay: Induction of autophagy in human MDA-MB-231 cells assessed as decrease in P62 expression level incubated for 48 hrs by Western blot analysis; format: functional, cell-based; settings: dose 5-20 µM
[14] = Toxicity in female BALB/C mouse implanted with mouse 4T1 cells assessed as change in WBC level at 20 to 50 mg/kg, iv administered every two days for 21 days by routine blood analysis; format: organism-based; settings: in vivo, 504 h, dose 20-50 mg/kg, time 21 day
4T1 = assay: Antitumor activity against mouse 4T1 cells implanted in female BALB/C mouse assessed as inhibition of tumor weight at 50 mg/kg, iv administered every two days for 21 days relative to control; format: functional, organism-based; settings: time 21.0 day
MDA-MB-231 [15] = assay: Induction of apoptosis in human MDA-MB-231 cells assessed as early apoptotic cells at 20 uM incubated for 48 hrs by Annexin V-FITC/PI staining based flow cytometric analysis (reference value: 2.25 %); format: functional
[16] = Toxicity in female BALB/C mouse implanted with mouse 4T1 cells assessed as change in serum BUN level at 20 to 50 mg/kg, iv administered every two days for 21 days; format: organism-based; settings: in vivo, 504 h, dose 20-50 mg/kg, time 21 day
MDA-MB-231 [17] = assay: Induction of apoptosis in human MDA-MB-231 cells assessed as viable cells at 10 uM incubated for 48 hrs by Annexin V-FITC/PI staining based flow cytometric analysis (reference value: 95.10%); format: functional; settings: read-out: Activity
MDA-MB-231 [18] = assay: Induction of apoptosis in human MDA-MB-231 cells assessed as viable cells at 5 uM incubated for 48 hrs by Annexin V-FITC/PI staining based flow cytometric analysis (reference value: 95.10%); format: functional; settings: read-out: Activity
[19] = Toxicity in female BALB/C mouse implanted with mouse 4T1 cells assessed as change in serum LDH level at 20 to 50 mg/kg, po administered every two days for 21 days; format: organism-based; settings: in vivo, 504 h, dose 20-50 mg/kg, time 21 day
MDA-MB-231 [20] = assay: Induction of apoptosis in human MDA-MB-231 cells assessed as necrotic cells at 20 uM incubated for 48 hrs by Annexin V-FITC/PI staining based flow cytometric analysis (reference value: 1.63%); format: functional
MDA-MB-231 [21] = assay: Cell cycle arrest in human MDA-MB-231 cells assessed as G2 phase cells at 20 uM incubated for 24 hrs by PI staining based flow cytometric analysis (reference value: 14.6%); format: functional
[22] = Toxicity in female BALB/C mouse implanted with mouse 4T1 cells assessed as effect on body weight at 20 to 50 mg/kg, po administered every two days for 21 days; format: organism-based; settings: in vivo, 504 h, dose 20-50 mg/kg, time 21 day
[23] = Toxicity in female BALB/C mouse implanted with mouse 4T1 cells assessed as spleen damage at 20 to 50 mg/kg, po administered every two days for 21 days by H and E staining based analysis; format: organism-based; settings: in vivo, 504 h, dose 20-50 mg/kg, time 21 day
MDA-MB-231 [24] = assay: Cell cycle arrest in human MDA-MB-231 cells assessed as S phase cells at 10 uM incubated for 48 hrs by PI staining based flow cytometric analysis (reference value: 16.0%); format: functional
[25] = Toxicity in female BALB/C mouse implanted with mouse 4T1 cells assessed as change in number of platelets at 20 to 50 mg/kg, po administered every two days for 21 days by routine blood analysis; format: organism-based; settings: in vivo, 504 h, dose 20-50 mg/kg, time 21 day
MDA-MB-231 [26] = assay: Induction of autophagy in human MDA-MB-231 cells assessed as appearance of ring shaped aggregates at 5 to 20 uM incubated for 48 hrs by DAPI staining based immunofluorescence analysis; format: functional, cell-based; settings: dose 5-20 µM
[27] = Toxicity in female BALB/C mouse implanted with mouse 4T1 cells assessed as effect on monocytes at 20 to 50 mg/kg, po administered every two days for 21 days by routine blood analysis; format: organism-based; settings: in vivo, 504 h, dose 20-50 mg/kg, time 21 day
MDA-MB-231 [28] = assay: Cell cycle arrest in human MDA-MB-231 cells assessed as G2 phase cells at 20 uM incubated for 48 hrs by PI staining based flow cytometric analysis (reference value: 14.6%); format: functional
[29] = Toxicity in female BALB/C mouse implanted with mouse 4T1 cells assessed as change in serum LDH level at 20 to 50 mg/kg, iv administered every two days for 21 days; format: organism-based; settings: in vivo, 504 h, dose 20-50 mg/kg, time 21 day
MDA-MB-231 [30] = assay: Induction of apoptosis in human MDA-MB-231 cells assessed as late apoptotic cells at 10 uM incubated for 48 hrs by Annexin V-FITC/PI staining based flow cytometric analysis (reference value: 1.06%); format: functional
[31] = Toxicity in female BALB/C mouse implanted with mouse 4T1 cells assessed as change in serum ALT level at 20 to 50 mg/kg, iv administered every two days for 21 days; format: organism-based; settings: in vivo, 504 h, dose 20-50 mg/kg, time 21 day
[32] = Cytotoxicity against human L02 cells assessed as reduction in cell viability incubated for 96 hrs by MTT assay; format: toxicity, cell-based
[33] = Toxicity in female BALB/C mouse implanted with mouse 4T1 cells assessed as change in serum AST level at 20 to 50 mg/kg, iv administered every two days for 21 days; format: organism-based; settings: in vivo, 504 h, dose 20-50 mg/kg, time 21 day

In the case of `CCC(=O)NC(n1cnc2c(Nc3cc(OC)c(OC)c(OC)c3)nc(N)nc21)C(Cl)(Cl)Cl` (centres undefined), the Activity [1] is reported as “Non-Toxic”, the Activity (MDA-MB-231 [2]) is reported as 29.4% and the Activity (MDA-MB-231 [3]) is reported as 32.3%. For the same compound, the Activity [4] was “Non-Toxic”, the Activity (MDA-MB-231 [5]) was 11.6% and the Activity (MDA-MB-231 [6]) was 0.96%. For the same compound, the Activity [7] was “Non-Toxic”, the Activity [8] was “Non-Toxic” and the viability at 20 µM (MDA-MB-231 [9]) was 91.7%. The Activity [10] was “Non-Toxic”, the IC50 (MDA-MB-231 [11]) was 1.43 µM and the Activity (MDA-MB-231 [12]) was 59%. The Activity (MDA-MB-231 [13]) was “Dose-Dependent Effect”, the Activity [14] was “Non-Toxic” and the Activity (4T1) was “inactive”. The Activity (MDA-MB-231 [15]) was 5.41%, the Activity [16] was “Non-Toxic” and the viability at 10 µM (MDA-MB-231 [17]) was 92.3%. The viability at 5 µM (MDA-MB-231 [18]) was 92.8%, the Activity [19] was “Non-Toxic” and the Activity (MDA-MB-231 [20]) was 0.99%. For the same compound, the Activity (MDA-MB-231 [21]) was 40.1%, the Activity [22] was “Non-Toxic” and the Activity [23] was “Non-Toxic”. For the same compound, the Activity (MDA-MB-231 [24]) was 11.9%, the Activity [25] was “Non-Toxic” and the Activity (MDA-MB-231 [26]) was “Active”. For the same compound, the Activity [27] was “Non-Toxic”, the Activity (MDA-MB-231 [28]) was 45.7% and the Activity [29] was “Non-Toxic”. For the same compound, the Activity (MDA-MB-231 [30]) was 2.04%, the Activity [31] was “Non-Toxic” and the IC50 at 96 h [32] was 14.7 µM. The Activity [33] was “Non-Toxic”.
